This test relates to GUMC-403. The test can be described thus: viability at highest tested concentration (max response) relative to DMSO (% of DMSO control); higher = less cytotoxic. The conditions noted are these: library / dose series: MIPE library, 11-point 1:3 dilution, 48 h. The method in brief:
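This value is viability at the highest tested concentration relative to vehicle control. GUMC-403 papilloma cells from a patient, grown by conditional reprogramming, were plated at 700/well in 1536-well plates and given 23 nL of compound by pin tool for 48 h. CellTiter-Glo luminescence on a ViewLux was normalised with vehicle wells at 100% and empty wells at 0%.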

Compound `CN[S+](=O)([O-])Cc1ccc2[nH]cc(CCN(C)C)c2c1` displayed a viability (top concentration 46.1 µM) of 126.

Consider `CCC(CC)[C@H](NC(C)=O)[C@@H]1[C@H](O)[C@@H](C(=O)O)C[C@H]1NC(=N)N`, for which the viability (top concentration 46.1 µM) amounted to 106.

`CN(C)CCOC(c1ccccc1)c1ccccc1`: the viability (top concentration 46.1 µM) came to 120.

Under “top concentration 46.1 µM”, `COc1nc(C)cnc1N[S+](=O)([O-])c1cccnc1-c1ccc(-c2nnco2)cc1` registered a viability of 138.

Regarding `Cc1cccc(Nc2nc(N[C@@H]3CCCC[C@@H]3N)ncc2C(N)=O)c1`, for the setting “top concentration 46.1 µM”, the viability was found to be 66.7.

Under “top concentration 46.1 µM”, `O=C(Nc1ncc(SCCN2CCCC2)s1)[C@]1(c2ccc([S+](=O)([O-])C3CC3)cc2)C[C@H]1C1CCCCC1` had a viability of 108.

In the case of `O=C1[C@H](Cc2ccc(O)cc2)N2C(=O)CCN(C(=O)NCc3ccccc3)[C@H]2CN1Cc1cccc2ccccc12`, the viability (top concentration 46.1 µM) is 78.2.

For `CNC(=O)CN1CCC(Oc2cc3c(Nc4cccc(Cl)c4F)ncnc3cc2OC)CC1`, where the note is “top concentration 46.1 µM”, the viability was determined as 61.1.

Regarding `N=C(N)NC(=N)NCCc1ccccc1`, the viability (top concentration 46.1 µM) was found to be 83.9.

In turn, `NC(=O)c1ccc(-c2nc(-c3ccc4c(c3)OCCO4)c(-c3ccccn3)[nH]2)cc1` displayed a viability (top concentration 46.1 µM) of 131.

For the setting “top concentration 46.1 µM”, `O=C1CCc2ccc(OCCCCN3CCN(c4cccc(Cl)c4Cl)CC3)cc2N1` registered a viability of 99.5.

For the setting “top concentration 46.1 µM”, `Cc1nc(-c2ccc(OCC(C)C)c(C#N)c2)sc1C(=O)O` had a viability of 129.

As to `OC[C@H]1O[C@@H](Oc2cc(O)cc(/C=C/c3ccc(O)cc3)c2)[C@H](O)[C@@H](O)[C@@H]1O`, the viability (top concentration 46.1 µM) is 128.

Compound `CCOc1cc(CC(=O)N[C@@H](CC(C)C)c2ccccc2N2CCCCC2)ccc1C(=O)O` had a viability (top concentration 46.1 µM) of 143.

`Cc1cc(NC(=O)Nc2ccc(N(C)C)cc2)c2cc(F)cc(F)c2n1` showed a viability (top concentration 46.1 µM) of 124.

Compound `Nc1cccc2c1C(=O)N(C1CCC(=O)NC1=O)C2=O` (configuration not stated) showed a viability (top concentration 46.1 µM) of 107.

`C1CCC(C(CC2CCCCN2)C2CCCCC2)CC1` (configuration not stated): the viability (top concentration 46.1 µM) turned out to be 85.1.

Take `OCCN1CCN(CCCN2c3ccccc3Sc3ccc(C(F)(F)F)cc32)CC1`: the viability (top concentration 46.1 µM) is 97.2.

`O=C1N(c2ccccc2)c2ccccc2C1(Cc1ccncc1)Cc1ccncc1` gave a viability (top concentration 46.1 µM) of 108.

On to `CC[C@H]1OC(=O)[C@H](C)C(=O)[C@H](C)[C@@H](O[C@H]2O[C@H](C)C[C@H](N(C)C)[C@H]2O)[C@](C)(OC)C[C@@H](C)C(=O)[C@H](C)[C@H]2N(CCCCn3cnc(-c4cccnc4)c3)C(=O)O[C@]12C`, for which, under “top concentration 46.1 µM”, the viability was found to be 102.

`CO[C@H]1/C=C/O[C@@]2(C)Oc3c(C)c(O)c4c(O)c(c(/C=N/N5CCN(C)CC5)c(O)c4c3C2=O)NC(=O)/C(C)=C\C=C\[C@H](C)[C@H](O)[C@@H](C)[C@@H](O)[C@@H](C)[C@H](OC(C)=O)[C@@H]1C` showed a viability (top concentration 11.1 µM) of 107.

The compound `CNC1CCCN(c2c(F)cc3c(=O)c(C(=O)O)cn(C4CC4)c3c2OC)C1` (configuration not stated) showed a viability (top concentration 46.1 µM) of 121.

On to `O=C(NCC1CN(c2ccc(N3CCOCC3=O)cc2)C(=O)O1)c1ccc(Cl)s1` (configuration not stated), for which the viability (top concentration 46.1 µM) is 127.

`COc1cc(/C=C/C(=O)CC(=O)/C=C/c2ccc(O)c(OC)c2)ccc1O` came in with a viability (top concentration 92.2 µM) of 94.4.

Regarding `CC(=O)Nc1ccc(OC[C@](C)(O)C(=O)Nc2ccc([N+](=O)[O-])c(C(F)(F)F)c2)cc1`, the viability (top concentration 46.1 µM) was 88.4.

The compound `NC12CC3CC(CC(C3)C1)C2` had a viability (top concentration 46.1 µM) of 136.

For the compound `COc1ccccc1OCCNCC(O)COc1cccc2[nH]c3ccccc3c12` (configuration not stated), the viability (top concentration 46.1 µM) came out at 102.

With `C[C@@H]1CC[C@@]2(OC1)OC1CC3C4CC=C5CC(O)CCC5(C)C4CCC3(C)C1[C@@H]2C` (some centres not stated), the viability (top concentration 46.1 µM) came out at 120.

`CC(C)(Sc1cc(C(C)(C)C)c(O)c(C(C)(C)C)c1)Sc1cc(C(C)(C)C)c(O)c(C(C)(C)C)c1` gave a viability (top concentration 46.1 µM) of 111.

`Cc1nc2ccc(CN(C)c3ccc(C(=O)N[C@@H](CCC(=O)O)C(=O)O)s3)cc2c(=O)[nH]1` returned a viability (top concentration 46.1 µM) of 116.

`CC(=O)N[C@@H]1[C@@H](NC(N)=N)\C=C(/O[C@H]1[C@H](O)[C@H](O)CO)C(O)=O`: the viability (top concentration 46.1 µM) stood at 129.

The compound `CCC(C1CCC(C)C(O1)C(C)C(O)C(C)C(=O)C(CC)C2OC\3(O[C@]4(CC[C@@](C)(O4)C5CC[C@@](O)(CC)C(C)O5)C(O)\C=C3)C(C)CC2C)C([O-])=O` (some centres not stated) displayed a viability (top concentration 46.1 µM) of 76.

For the compound `CCNC(=O)C[C@H]1/N=C(/C2=CC=C(Cl)C=C2)C3=CC(=CC=C3[N]4C(=NN=C14)C)OC`, for the setting “top concentration 46.1 µM”, the viability amounted to 93.5.

`COc1cc(CNC(=O)CCCC/C=C/C(C)C)ccc1O`: the viability (top concentration 46.1 µM) was determined as 128.

In the case of `CC[C@H](C)[N]1C=C(C)C2=C1C=C(C=C2C(=O)NC\C3=C(C)\C=C(\C)NC3=O)C4=CC=C(N=C4)N5CCNCC5`, the viability (top concentration 46.1 µM) worked out at 141.

`CN1CCC(CC1)=C2C3=C(C=CC=C3)\C=C/C4=C2C=CC=C4` yielded a viability (top concentration 46.1 µM) of 111.

The compound `CO/C1=C/C(C)=C\[C@@H](C)[C@@H](O)[C@@H](C)C/C(C)=C\C=C/[C@H](OC)[C@@H]([C@@H](C)[C@@H](O)[C@H](C)[C@@]2(O)C[C@@H](O)[C@H](C)[C@@H](C(C)C)O2)OC1=O` returned a viability (top concentration 46.1 µM) of 93.

For the setting “top concentration 46.1 µM”, `Cc1ccccc1C(=O)Nc1ccc(C(=O)N2CCCC(O)c3cc(Cl)ccc32)c(C)c1` (configuration not stated) yielded a viability of 108.

In turn, `CNC(=O)c1ccccc1Sc1ccc2c(/C=C/c3ccccn3)n[nH]c2c1` gave a viability (top concentration 46.1 µM) of 104.

Regarding `O=C(O)CCCCC(CCSCc1ccccc1)SCc1ccccc1` (configuration not stated), for the setting “top concentration 46.1 µM”, the viability was determined as 130.

For the setting “top concentration 46.1 µM”, `CC(=O)N1CCN(c2ccc(OCc3nn(C)c(C)c3-c3cccc4c(CCCOc5cc(C)c(Cl)c(C)c5)c(C(=O)O)n(Cc5cccnc5)c34)cc2)CC1` yielded a viability of 137.

Turning to `COc1cc(NCc2ccc3nc(N)nc(N)c3c2C)cc(OC)c1OC`, for the setting “top concentration 46.1 µM”, the viability is 99.5.

Consider `C[C@]12COC(=O)C[C@@H]1CC[C@@H]1[C@@H]2CC[C@@]2(C)[C@H]1CC[C@]2(C)O`, for which, for the setting “top concentration 46.1 µM”, the viability was determined as 108.

`COc1ccc(/C=C\c2cc(OC)c(OC)c(OC)c2)cc1NC(=O)[C@H](N)CO` yielded a viability (top concentration 46.1 µM) of 85.1.

`OC[C@H]1O[C@H]([C@@H](F)[C@@H]1O)N2\C=C/C(=O)NC2=O` came in with a viability (top concentration 46.1 µM) of 116.

`CCOC(=O)[C@@H](N)CCC(=O)N[C@@H](CSCc1ccccc1)C(=O)N[C@@H](C(=O)OCC)c1ccccc1`: for the setting “top concentration 46.1 µM”, the viability turned out to be 95.5.

For the setting “top concentration 46.1 µM”, `C=CC(=O)N1CCC[C@@H](n2nc(-c3ccc(Oc4ccccc4)cc3)c3c(N)ncnc32)C1` showed a viability of 83.3.

`Cc1nnc(N[S+](=O)([O-])c2ccc(N)cc2)s1` gave a viability (top concentration 46.1 µM) of 113.

Compound `COC1=CC=C(C=C1)C2CC(=N/N2C3=CC=C(C=C3)[S+](N)([O-])=O)\C4=CC=CC=C4` (configuration not stated) had a viability (top concentration 46.1 µM) of 137.

For `CN1CCN(CC1)C/2=N/C3=CC=CC=C3NC4=C2C=C(C)S4`, the viability (top concentration 46.1 µM) came to 117.

Consider `Cc1ccc([S+](=O)([O-])Nc2cc(Cl)ccc2C(=O)Nc2nc(-c3ccccc3)cs2)cc1`, for which the viability (top concentration 46.1 µM) worked out at 104.

With `COC1=CC=CC(=C1N)\C2=C\C(=O)C3=C(O2)C=CC=C3`, the viability (top concentration 46.1 µM) was found to be 57.1.

Take `CCC(=O)OC1CCC2C3CCC/4=C/C(=O)CC[C@@]4(C)C3CC[C@]12C` (some centres not stated): the viability (top concentration 46.1 µM) was 130.

With `Cc1cc(OCCC[S+](C)(=O)[O-])cc(C)c1-c1cccc(COc2ccc3c(c2)OC[C@H]3CC(=O)O)c1`, the viability (top concentration 46.1 µM) stood at 112.

`Cc1cccc(-c2n[nH]cc2-c2ccc3ncccc3n2)n1` had a viability (top concentration 46.1 µM) of 126.

Regarding `CC(C)C(=O)Nc1ccc([N+](=O)[O-])c(C(F)(F)F)c1`, the viability (top concentration 46.1 µM) is 85.7.

For `C[C@H](NC(=O)Cc1cc(F)cc(F)c1)C(=O)N[C@H](C(=O)OC(C)(C)C)c1ccccc1`, the viability (top concentration 46.1 µM) was 79.4.

In the case of `O=C1\C=C/C[C@@H]2[C@H]3CCCN4CCC[C@@H](CN12)[C@@H]34`, the viability (top concentration 46.1 µM) came to 108.

`COc1cc2ncn(-c3cc(OCc4ccccc4[S+](C)(=O)[O-])c(C#N)s3)c2cc1OC` yielded a viability (top concentration 46.1 µM) of 81.5.

Regarding `CN1CCc2c(n(Cc3ccc(C(=O)NO)cc3)c3ccccc23)C1`, under “top concentration 46.1 µM”, the viability is 107.

Where the note is “top concentration 46.1 µM”, `Cn1cc(-c2ccncc2)c(-c2ccc(OCc3ccc4ccccc4n3)cc2)n1` showed a viability of 98.3.

For the compound `O=C(NCc1ccncc1)C12C[C@H]3C[C@@H](C1)CC(c1ccc(Cl)cc1)(C3)C2`, the viability (top concentration 46.1 µM) came out at 108.

Compound `C/C=C1\C2C=C(C)CC1(N)c1ccc(=O)[nH]c1C2` (configuration not stated) came in with a viability (top concentration 46.1 µM) of 118.

`C[C@]12CC[C@@H]3c4ccc(O)cc4CC[C@H]3[C@@H]1C[C@@H](O)[C@@H]2O`: for the setting “top concentration 46.1 µM”, the viability turned out to be 87.

On to `O=C1CCC(N2C(=O)c3ccccc3C2=O)C(=O)N1` (configuration not stated), for which the viability (top concentration 46.1 µM) came to 92.

For `O=C(NCC[S+](=O)([O-])c1ccc(C(F)(F)F)cn1)c1ccc(Cl)cc1`, under “top concentration 46.1 µM”, the viability is 107.

For the compound `ClC1=CC\2=C(OC3=C(C=CC=C3)\N=C2N4CCNCC4)C=C1`, the viability (top concentration 46.1 µM) was 110.

`S=C1N\C=N/C2=C1[NH]C=N2` gave a viability (top concentration 46.1 µM) of 103.

With `NC(=O)c1cccnc1`, for the setting “top concentration 46.1 µM”, the viability is 136.

The compound `C[C@@H](O)[C@@H]1NC(=O)[C@H](CCCCN)NC(=O)[C@@H](Cc2c[nH]c3ccccc23)NC(=O)[C@H](Cc2ccccc2)NC(=O)[C@@H](NC(=O)[C@H](N)Cc2ccccc2)CSSC[C@@H](C(=O)N[C@H](CO)[C@@H](C)O)NC1=O` had a viability (top concentration 46.1 µM) of 89.7.

As to `CC(Oc1ccc(O)cc1)(P(=O)(O)O)P(=O)(O)O`, under “top concentration 46.1 µM”, the viability came to 112.

`CCOC(=O)N1c2ccc(C(F)(F)F)cc2[C@@H](N(Cc2cc(C(F)(F)F)cc(C(F)(F)F)c2)C(=O)OC)C[C@H]1CC` registered a viability (top concentration 46.1 µM) of 87.7.

Values taken from the supplement of paper PMC6723410.
